Laboratory results taken from US9428508B2, “2,4-diamino-6,7-dihydro-5H-pyrrolo[2,3]pyrimidine derivatives as FAK/Pyk2 inhibitors” (Centaurus BioPharma Co., Ltd., priority 2011, dated 2016).

Tests used:
FAK = FAK (Homo sapiens (Human), UniProt Q05397); experiment: Biochemical assay for FAK activity (LANCE TR-FRET, ULight-poly Glu,Ala,Tyr substrate); conditions: GST-tagged FAK, 120 min reaction
In short: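 GST-tagged FAK (2.5 nM working stock) with ULight-poly Glu,Ala,Tyr (666 nM stock) and ATP (33.3 μM stock) in Tris pH 7.5/MgCl2/DTT/CHAPS buffer with BSA, 120 min; EDTA-quenched. Phosphorylation read by TR-FRET with Eu-anti-phosphotyrosine (PY20) antibody after 60 min. Compounds tested as 12-point 3-fold dilutions.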

PYK2 = PYK2 (Homo sapiens (Human), UniProt Q14289); experiment: Biochemical assay for PYK2 activity (LANCE TR-FRET, ULight-poly Glu,Ala,Tyr substrate); conditions: GST-tagged PYK2, 40 min reaction
In short: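 GST-tagged human PYK2 (2 nM working stock) with ULight-poly Glu,Ala,Tyr (1:1:1) peptide (666 nM working stock) and ATP (46.6 μM working stock) in 40 mM Tris pH 7.5, MgCl2, 1 mM DTT, 1 mM CHAPS; 40 min reaction, EDTA quench. Phosphotyrosine read by LANCE Eu-anti-phosphotyrosine (PY20) TR-FRET after 60 min; 12-point 3-fold compound dilutions.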

PYK2, sequence (Q14289 whole entry): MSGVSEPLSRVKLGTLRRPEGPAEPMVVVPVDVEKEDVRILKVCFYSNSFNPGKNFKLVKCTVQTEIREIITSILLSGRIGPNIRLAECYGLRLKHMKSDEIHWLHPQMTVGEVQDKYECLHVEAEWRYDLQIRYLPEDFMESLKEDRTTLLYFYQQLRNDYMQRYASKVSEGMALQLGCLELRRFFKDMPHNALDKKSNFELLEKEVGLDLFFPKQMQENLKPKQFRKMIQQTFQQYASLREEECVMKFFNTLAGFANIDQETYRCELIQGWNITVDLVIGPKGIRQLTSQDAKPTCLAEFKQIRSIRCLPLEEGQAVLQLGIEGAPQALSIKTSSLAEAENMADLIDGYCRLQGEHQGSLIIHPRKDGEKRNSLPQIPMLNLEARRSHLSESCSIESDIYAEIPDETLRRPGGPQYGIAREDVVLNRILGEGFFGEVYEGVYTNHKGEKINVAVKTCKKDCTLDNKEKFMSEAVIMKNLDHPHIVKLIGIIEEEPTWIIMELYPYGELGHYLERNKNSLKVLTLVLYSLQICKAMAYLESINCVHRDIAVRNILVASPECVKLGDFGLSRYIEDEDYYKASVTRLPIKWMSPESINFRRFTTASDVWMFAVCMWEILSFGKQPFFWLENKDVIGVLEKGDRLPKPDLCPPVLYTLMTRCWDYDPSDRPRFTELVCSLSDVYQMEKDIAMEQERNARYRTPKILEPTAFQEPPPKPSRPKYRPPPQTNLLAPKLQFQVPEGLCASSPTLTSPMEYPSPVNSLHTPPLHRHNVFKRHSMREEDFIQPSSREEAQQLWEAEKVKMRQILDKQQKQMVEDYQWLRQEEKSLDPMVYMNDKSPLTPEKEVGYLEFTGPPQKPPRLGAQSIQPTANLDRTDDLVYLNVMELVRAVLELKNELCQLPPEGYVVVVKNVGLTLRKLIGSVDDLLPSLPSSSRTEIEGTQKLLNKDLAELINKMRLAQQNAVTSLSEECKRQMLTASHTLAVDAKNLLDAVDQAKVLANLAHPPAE
FAK, sequence (Q05397 whole entry): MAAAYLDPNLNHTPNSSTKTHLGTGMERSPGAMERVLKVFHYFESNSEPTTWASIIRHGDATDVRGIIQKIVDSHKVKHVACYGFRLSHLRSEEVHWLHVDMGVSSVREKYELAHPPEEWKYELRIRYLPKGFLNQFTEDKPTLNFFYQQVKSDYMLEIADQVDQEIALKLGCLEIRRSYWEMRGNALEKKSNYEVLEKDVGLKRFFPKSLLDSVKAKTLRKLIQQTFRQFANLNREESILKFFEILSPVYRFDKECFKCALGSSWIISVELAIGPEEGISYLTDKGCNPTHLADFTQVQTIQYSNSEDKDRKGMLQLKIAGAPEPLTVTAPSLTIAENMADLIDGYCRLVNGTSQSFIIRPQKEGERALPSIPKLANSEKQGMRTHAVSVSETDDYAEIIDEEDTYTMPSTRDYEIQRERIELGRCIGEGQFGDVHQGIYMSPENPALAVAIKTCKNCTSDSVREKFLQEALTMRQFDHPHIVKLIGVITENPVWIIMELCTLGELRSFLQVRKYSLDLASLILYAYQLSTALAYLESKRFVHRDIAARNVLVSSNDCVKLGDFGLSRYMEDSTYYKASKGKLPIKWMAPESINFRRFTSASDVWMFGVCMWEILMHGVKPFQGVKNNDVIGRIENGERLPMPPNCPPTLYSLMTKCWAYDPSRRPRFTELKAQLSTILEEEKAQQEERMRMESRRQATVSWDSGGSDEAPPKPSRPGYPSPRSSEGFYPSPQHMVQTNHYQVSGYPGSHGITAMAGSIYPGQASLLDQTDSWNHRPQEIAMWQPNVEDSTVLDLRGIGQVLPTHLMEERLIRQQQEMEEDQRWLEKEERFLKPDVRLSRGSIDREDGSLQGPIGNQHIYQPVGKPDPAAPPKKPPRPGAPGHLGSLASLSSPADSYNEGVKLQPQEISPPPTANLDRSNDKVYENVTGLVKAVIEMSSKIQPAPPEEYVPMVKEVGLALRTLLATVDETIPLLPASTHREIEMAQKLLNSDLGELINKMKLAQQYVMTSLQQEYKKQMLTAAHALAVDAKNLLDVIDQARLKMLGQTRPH

Row | Compound | IC50 (FAK) [nM] | IC50 (PYK2) [nM]
1 | COc1cc(N2CCOCC2)ccc1Nc1nc2c(c(Nc3ccccc3S(=O)(=O)NC3CCCC3)n1)C(C)CN2 (racemic) [Example 28, (±)-N-cyclopentyl-2-(2-(2-methoxy-4-morpholinophenylamino)-5-methyl-6,7-dihydro-5H-pyrrolo[2,3-d]pyrimidin-4-ylamino)benzenesulfonamide] | < 300 | < 50
2 | COc1cc(N2CCOCC2)ccc1Nc1nc2c(c(Nc3ccccc3S(=O)(=O)NCC(C)C)n1)C1(CC1)CN2 [Example 137, N-isobutyl-2-(2′-(2-methoxy-4-morpholinophenylamino)-6′,7′-dihydrospiro[cyclopropane-1,5′-pyrrolo[2,3-d]pyrimidine]-4′-ylamino)benzenesulfonamide] | < 20 | < 20
3 | COc1cc(N2CCOCC2)ccc1Nc1nc2c(c(Nc3cccc(C)n3)n1)C(C)CN2 (racemic) [Example 33, (±)-N^2-(2-methoxy-4-morpholinophenyl)-5-methyl-N^4-(6-methylpyridin-2-yl)-6,7-dihydro-5H-pyrrolo[2,3-d]pyrimidine-2,4-diamine] | < 500 | < 1000
4 | CC(C)NS(=O)(=O)c1ccccc1Nc1nc(Nc2ccc(N3CCOCC3)cc2C(F)(F)F)nc2c1CCN2 [Example 60, N-isopropyl-2-(2-(4-morpholino-2-(trifluoromethyl)phenylamino)-6,7-dihydro-5H-pyrrolo[2,3-d]pyrimidin-4-ylamino)benzenesulfonamide] | < 500 | > 1000
5 | COCCNS(=O)(=O)c1ccccc1Nc1nc(Nc2ccc(N3CCOCC3)cc2OC)nc2c1CCN2 [Example 50, 2-(2-(2-methoxy-4-morpholinophenylamino)-6,7-dihydro-5H-pyrrolo[2,3-d]pyrimidin-4-ylamino)-N-(2-methoxyethyl)benzenesulfonamide] | < 50 | < 50
6 | COc1cc(N2CCCCC2)ccc1Nc1nc2c(c(Nc3ccccc3S(=O)(=O)NC(C)C)n1)CCN2 [Example 68, N-isopropyl-2-(2-(2-methoxy-4-(piperidin-1-yl)phenylamino)-6,7-dihydro-5H-pyrrolo[2,3-d]pyrimidin-4-ylamino)benzenesulfonamide] | < 50 | < 200
7 | COc1cc(N2CCOCC2)ccc1Nc1nc2c(c(Nc3ccccc3NC(C)=O)n1)C1(CC1)CN2 [Example 155, N-(2-(2′-(2-methoxy-4-morpholinophenylamino)-6′,7′-dihydrospiro[cyclopropane-1,5′-pyrrolo[2,3-d]pyrimidine]-4′-ylamino)phenyl)acetamide] | < 50 | < 50
8 | CC(C)NS(=O)(=O)c1ccccc1Nc1nc(Nc2ccc(C(=O)N3CCCC3)cc2)nc2c1CCN2 [Example 78, N-isopropyl-2-(2-(4-(pyrrolidine-1-carbonyl)phenylamino)-6,7-dihydro-5H-pyrrolo[2,3-d]pyrimidin-4-ylamino)benzenesulfonamide] | < 20 | < 20
9 | COc1cc(N2CCOCC2)ccc1Nc1nc2c(c(Nc3ccccc3C(=O)O)n1)CCN2 [Example 160, 2-(2-(2-methoxy-4-morpholinophenylamino)-6,7-dihydro-5H-pyrrolo[2,3-d]pyrimidin-4-ylamino)benzoic acid] | < 500 | < 1000
10 | COc1cc(N2CCOCC2)ccc1Nc1nc2c(c(Nc3ccccc3S(=O)(=O)NC3CCCC3)n1)C1(CC1)CN2 [Example 145, N-cyclopentyl-2-(2′-(2-methoxy-4-morpholinophenylamino)-6′,7′-dihydrospiro[cyclopropane-1,5′-pyrrolo[2,3-d]pyrimidine]-4′-ylamino)benzenesulfonamide] | < 100 | < 100
11 | COc1cc(N2CCC(O)CC2)ccc1Nc1nc2c(c(Nc3ccccc3S(=O)(=O)NC(C)C)n1)CCN2 [Example 86, 2-(2-(4-(4-hydroxypiperidin-1-yl)-2-methoxyphenylamino)-6,7-dihydro-5H-pyrrolo[2,3-d]pyrimidin-4-ylamino)-N-isopropylbenzenesulfonamide] | < 20 | < 20
12 | CNC(=O)c1ccccc1Nc1nc(Nc2ccc(N3CCOCC3)cc2OC)nc2c1C(C)CN2 (racemic) [Example 23, (±)-2-(2-(2-methoxy-4-morpholinophenylamino)-5-methyl-6,7-dihydro-5H-pyrrolo[2,3-d]pyrimidin-4-ylamino)-N-methylbenzamide] | < 50 | < 50
13 | COc1cc(N2CCOCC2)ccc1Nc1nc2c(c(Nc3ccccc3NC(C)=O)n1)C(C)CN2 (racemic) [Example 30, (±)-N-(2-(2-(2-methoxy-4-morpholinophenylamino)-5-methyl-6,7-dihydro-5H-pyrrolo[2,3-d]pyrimidin-4-ylamino)phenyl)acetamide] | < 200 | < 200
14 | COc1cc(N2CCOCC2)ccc1Nc1nc2c(c(Nc3ccccc3S(=O)(=O)NC(C)C)n1)C1(CC1)CN2 [Example 138, N-isopropyl-2-(2′-(2-methoxy-4-morpholinophenylamino)-6′,7′-dihydrospiro[cyclopropane-1,5′-pyrrolo[2,3-d]pyrimidine]-4′-ylamino)benzenesulfonamide] | < 20 | < 20
15 | CNS(=O)(=O)c1ccccc1Nc1nc(Nc2ccc(N3CCOCC3)cc2OC)nc2c1CCN2 [Example 4, 2-(2-(2-methoxy-4-morpholinophenylamino)-6,7-dihydro-5H-pyrrolo[2,3-d]pyrimidin-4-ylamino)-N-methylbenzenesulfonamide] | < 20 | < 50
16 | COc1cc(N2CCOCC2)ccc1Nc1nc2c(c(Nc3ccccc3S(=O)(=O)NC(C)(C)C)n1)CCN2 [Example 47, N-tert-butyl-2-(2-(2-methoxy-4-morpholinophenylamino)-6,7-dihydro-5H-pyrrolo[2,3-d]pyrimidin-4-ylamino)benzenesulfonamide] | < 200 | < 100
17 | COc1cc(N2CCOCC2)ccc1Nc1nc2c(c(Nc3ccccc3S(=O)(=O)NC(C)C)n1)C(C)CN2 (stereo not shown) [Example 101, N-isopropyl-2-(2-(2-methoxy-4-morpholinophenylamino)-5-methyl-6,7-dihydro-5H-pyrrolo[2,3-d]pyrimidin-4-ylamino)benzenesulfonamide] | < 20 | < 20
18 | CNC(=O)c1ccc2c(c1Nc1nc(Nc3ccc(N4CCOCC4)cc3OC)nc3c1CCN3)OCO2 [Example 2, 4-(2-(2-methoxy-4-morpholinophenylamino)-6,7-dihydro-5H-pyrrolo[2,3-d]pyrimidin-4-ylamino)-N-methylbenzo[d][1,3]dioxole-5-carboxamide] | > 1000 | > 1000
19 | COc1cc(N2CCOCC2)ccc1Nc1nc2c(c(Nc3ccc(F)c(F)c3)n1)C(C)CN2 (racemic) [Example 34, (±)-N^4-(3,4-difluorophenyl)-N^2-(2-methoxy-4-morpholinophenyl)-5-methyl-6,7-dihydro-5H-pyrrolo[2,3-d]pyrimidine-2,4-diamine] | > 1000 | < 1000
20 | CNC(=O)c1ccccc1Nc1nc(Nc2ccccc2OC)nc2c1CCN2 [Example 159, 2-(2-(2-methoxyphenylamino)-6,7-dihydro-5H-pyrrolo[2,3-d]pyrimidin-4-ylamino)-N-methylbenzamide] | < 200 | < 200
